Like-named read-outs stand apart in the source and are kept apart here.
What was measured:
[1] = system: BT-549; assay: NCI-60 screening (SRB); format: cell-based, human; details: five-dose
[2] = system: UACC-257; assay: NCI-60 screening (SRB); format: cell-based, human; details: five-dose
[3] = system: CAKI-1; assay: NCI-60 screening (SRB); format: cell-based, human; details: CAKI-1, five-dose
[4] = system: U251; assay: NCI-60 screening (SRB); format: cell-based, human; details: U251, five-dose
[5] = system: NCI-60 cancer cell line panel; assay: NCI-60 screening (SRB), full panel; format: cell-based, human; details: for activity at 10 µM: 60 cell lines, 48 h
In short: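 Run per NCI protocol: cells exposed to compound for 48 h, growth measured spectrophotometrically by sulforhodamine B protein staining versus untreated controls. GI50, TGI and LC50 derived per cell line; subpanel MG_MID averages these, insensitive lines counted at the highest concentration tested.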

[6] = system: SK-MEL-28; assay: NCI-60 screening (SRB); format: cell-based, human; details: five-dose
[7] = system: CNS cancer; assay: cells; format: cell-based
Source text: The experimental data allow the assessment of the cytostatic effect, indicated by growth inhibition values ranging between 0 and 100, as well as of the cytotoxic effect, indicated by negative values.
The mean GI50 (molar concentration of the compound that inhibits 50% net cell growth), TGI (molar concentration of the compound leading to the total inhibition), and LC50 (molar concentration of the compound leading to 50% net cell death (presented in negative logarithm)) values across each cell line are shown in Table 2.
The selectivity index (SI), calculated as the ratio between the full panel MG_MID60 (μM) of compounds 4, 6, and 9 by their respective subpanels MG_MID of the cell line (μM), was introduced as a quantification tool for the selectivity of each compound in terms of anticancer effect (Table 3).
Primary anticancer assays were performed according to the NCI protocol, as described elsewhere (see e.g., http://dtp.nci.nih.gov accessed on 1 November 2018). The compounds were added at a single concentration, and the cell cultures were incubated for 48 h. The end point determinations were made with a protein-binding dye, sulforhodamine B (SRB). […] The percentage of growth was evaluated spectrophotometrically versus controls not treated with test agents after 48 h exposure and using SRB protein assay to estimate cell viability or growth. Three antitumor activity dose-response parameters were calculated for each cell line. Furthermore, mean graph midpoints (MG_MID) were calculated for each of the parameters, giving an average activity parameter over all cell lines for the tested compound. For the MG_MID calculation, insensitive cell lines were included with the highest concentration tested.

[8] = system: MOLT-4; assay: NCI-60 screening (SRB); format: cell-based, human; details: five-dose
[9] = system: HCC-2998; assay: NCI-60 screening (SRB); format: cell-based, human; details: five-dose
[10] = system: HOP-92; assay: NCI-60 screening (SRB); format: cell-based, human; details: five-dose
[11] = system: SK-MEL-5; assay: NCI-60 screening (SRB); format: cell-based, human; details: SK-MEL-5, five-dose
[12] = system: IGROV1; assay: NCI-60 screening (SRB); format: cell-based, human
[13] = system: MDA-MB-31/ATCC; assay: NCI-60 screening (SRB); format: cell-based, human; details: five-dose
[14] = system: RPMI-8226; assay: NCI-60 screening (SRB); format: cell-based, human; details: five-dose
[15] = system: SK-MEL-2; assay: NCI-60 screening (SRB); format: cell-based, human; details: five-dose
[16] = system: PC-3; assay: NCI-60 screening (SRB); format: cell-based, human; details: five-dose
[17] = system: MDA-MB-435; assay: NCI-60 screening (SRB); format: cell-based, human; details: five-dose
[18] = system: SK-OV-3; assay: NCI-60 screening (SRB); format: cell-based, human; details: five-dose
[19] = system: OVCAR-5; assay: NCI-60 screening (SRB); format: cell-based, human; details: five-dose
[20] = system: DU-145; assay: NCI-60 screening (SRB); format: cell-based, human; details: five-dose
[21] = system: SN12C; assay: NCI-60 screening (SRB); format: cell-based, human; details: five-dose
[22] = system: HOP-62; assay: NCI-60 screening (SRB); format: cell-based, human; details: five-dose
[23] = system: OVCAR-8; assay: NCI-60 screening (SRB); format: cell-based, human; details: five-dose
[24] = system: UACC-62; assay: NCI-60 screening (SRB); format: cell-based, human; details: five-dose
[25] = system: RXF 393; assay: NCI-60 screening (SRB); format: cell-based, human; details: five-dose
[26] = system: SF-268; assay: NCI-60 screening (SRB); format: cell-based, human; details: five-dose
[27] = Homo sapiens, read-out: LC50 (the source's name)

Q: CCN1CCN(C(=O)[C@]23CC[C@@H](C)[C@H](C)[C@H]2C2=CC[C@@H]4[C@@]5(C)C/C(=C/c6cccnc6)C(=O)C(C)(C)[C@@H]5CC[C@@]4(C)[C@]2(C)CC3)CC1 [Compound 9, N-(2-{3-Pyridinylidene}-3-oxoursan-12-en-28-oyl)-ethylpiperazine] was tested. Which GI50 ([1]; Homo sapiens) did it give?
A: 1.69 µM

Q: What about the TGI [1] of the same compound?
A: 3.59 µM

Q: What about the GI50 ([2]; Homo sapiens) of the same compound?
A: 2.21 µM

Q: And the CC50 [2, 27]?
A: > 100 µM

Q: What about the TGI [2] of the same compound?
A: 5.95 µM

Q: What about the TGI [3] of the same compound?
A: 11.8 µM

Q: And the GI50 ([3]; Homo sapiens)?
A: 2.12 µM

Q: What about the CC50 [3, 27] of the same compound?
A: 41.9 µM

Q: What about the GI50 ([4]; Homo sapiens, U-251) of the same compound?
A: 1.82 µM

Q: What about the TGI [4] of the same compound?
A: 3.67 µM

Q: And the “Positive Cytostatic Effect (cell lines with percent growth 0 to 50 / total)” value ([5]; 1 dose 10 µM)?
A: 33/59

Q: What about the “Positive Cytotoxic Effect (cell lines with percent growth <0 / total)” value ([5]; 1 dose 10 µM) of the same compound?
A: 5/59

Q: And the GI50 ([5]; Homo sapiens, five-dose, bound, read-out: GI50 against all human tumor cells)?
A: < 4 µM

Q: What about the GI50 ([5]; Homo sapiens, mean graph midpoint, full panel, five-dose, read-out: GI50 MG_MID60) of the same compound?
A: 1.93 µM

Q: And the CC50 ([5]; Homo sapiens, mean graph midpoint, full panel, five-dose, read-out: LC50 MG_MID60)?
A: 38 µM

Q: And the activity at 10 µM ([5]; Homo sapiens, 1 dose 10 µM, read-out: Mean Growth, %)?
A: 25.3%

Q: And the activity at 10 µM ([5]; Homo sapiens, 1 dose 10 µM, read-out: Range of Growth, %)?
A: -38.2 to 65.7%

Q: And the “TGI MG_MID60” value ([5]; mean graph midpoint, full panel, five-dose)?
A: 5.29 µM

Q: And the selectivity class ([5]; toward some individual cell lines at the LC50 level)?
A: moderate selectivity (Ratios between 3 and 6 are indicators of moderate selectivity)

Q: What about the GI50 ([6]; Homo sapiens) of the same compound?
A: 1.74 µM

Q: And the CC50 [6, 27]?
A: 5.69 µM

Q: What about the TGI [6] of the same compound?
A: 3.15 µM

Q: And the “TGI MG_MID” value ([7]; CNS cancer subpanel, five-dose)?
A: 4.41 µM

Q: And the “SI (TGI)” value ([7]; CNS cancer, MG_MID60/subpanel MG_MID)?
A: 1.20

Q: And the GI50 ([7]; Homo sapiens, CNS cancer subpanel, five-dose, read-out: GI50 MG_MID)?
A: 1.71 µM

Q: And the CC50 ([7]; Homo sapiens, CNS cancer subpanel, five-dose, read-out: LC50 MG_MID)?
A: 13.6 µM

Q: And the GI50 ([8]; Homo sapiens)?
A: 2.63 µM

Q: What about the CC50 [8, 27] of the same compound?
A: > 100 µM

Q: What about the TGI [8] of the same compound?
A: 7.44 µM

Q: And the GI50 ([9]; Homo sapiens)?
A: 1.55 µM

Q: What about the CC50 [9, 27] of the same compound?
A: 5.79 µM

Q: What about the TGI [9] of the same compound?
A: 3.00 µM

Q: And the GI50 ([10]; Homo sapiens)?
A: 1.57 µM

Q: And the CC50 [10, 27]?
A: 38.8 µM

Q: What about the TGI [10] of the same compound?
A: 5.73 µM

Q: What about the GI50 ([11]; Homo sapiens) of the same compound?
A: 1.75 µM

Q: What about the CC50 [11, 27] of the same compound?
A: 5.63 µM

Q: What about the TGI [11] of the same compound?
A: 3.14 µM

Q: And the GI50 ([12]; Homo sapiens, IGROV-1, five-dose)?
A: 1.89 µM

Q: What about the CC50 ([12]; Homo sapiens, IGROV-1, five-dose, read-out: LC50 (the source's name)) of the same compound?
A: 7.94 µM

Q: And the TGI ([12]; five-dose)?
A: 3.87 µM

Q: And the GI50 ([13]; Homo sapiens)?
A: 1.75 µM

Q: And the CC50 [13, 27]?
A: 7.39 µM

Q: And the TGI [13]?
A: 3.59 µM

Q: What about the GI50 ([14]; Homo sapiens) of the same compound?
A: 2.45 µM

Q: What about the CC50 [14, 27] of the same compound?
A: > 100 µM

Q: And the TGI [14]?
A: 7.38 µM

Q: And the GI50 ([15]; Homo sapiens)?
A: 2.12 µM

Q: What about the CC50 [15, 27] of the same compound?
A: 65.5 µM

Q: What about the TGI [15] of the same compound?
A: 4.76 µM

Q: What about the GI50 ([16]; Homo sapiens) of the same compound?
A: 1.49 µM

Q: And the CC50 [16, 27]?
A: 9.92 µM

Q: What about the TGI [16] of the same compound?
A: 3.85 µM

Q: And the GI50 ([17]; Homo sapiens)?
A: 1.7 µM

Q: What about the CC50 [17, 27] of the same compound?
A: 7.18 µM

Q: What about the TGI [17] of the same compound?
A: 3.49 µM

Q: And the GI50 ([18]; Homo sapiens)?
A: 2.7 µM

Q: What about the CC50 [18, 27] of the same compound?
A: 90.1 µM

Q: And the TGI [18]?
A: 9.02 µM

Q: And the GI50 ([19]; Homo sapiens)?
A: 1.54 µM

Q: And the CC50 [19, 27]?
A: 5.57 µM

Q: And the TGI [19]?
A: 2.93 µM

Q: What about the GI50 ([20]; Homo sapiens) of the same compound?
A: 2.08 µM

Q: What about the CC50 [20, 27] of the same compound?
A: 8.53 µM

Q: And the TGI [20]?
A: 4.21 µM

Q: And the GI50 ([21]; Homo sapiens)?
A: 1.61 µM

Q: What about the CC50 [21, 27] of the same compound?
A: 5.66 µM

Q: And the TGI [21]?
A: 3.01 µM

Q: And the GI50 ([22]; Homo sapiens)?
A: 2.43 µM

Q: And the LC50 ([22]; Homo sapiens)?
A: > 100 µM

Q: And the TGI [22]?
A: 5.86 µM

Q: And the GI50 ([23]; Homo sapiens)?
A: 2.32 µM

Q: What about the CC50 [23, 27] of the same compound?
A: > 100 µM

Q: And the TGI [23]?
A: 6.29 µM

Q: And the GI50 ([24]; Homo sapiens)?
A: 1.51 µM

Q: What about the CC50 [24, 27] of the same compound?
A: 5.8 µM

Q: And the TGI [24]?
A: 2.96 µM

Q: And the GI50 ([25]; Homo sapiens)?
A: 1.45 µM

Q: What about the CC50 [25, 27] of the same compound?
A: 5.53 µM

Q: And the TGI [25]?
A: 2.83 µM

Q: What about the GI50 ([26]; Homo sapiens) of the same compound?
A: 1.77 µM

Q: And the CC50 [26, 27]?
A: 9.15 µM

Q: What about the TGI [26] of the same compound?
A: 4.02 µM

Reference: PMC8536124 (International Journal of Molecular Sciences, 2021)
